Results as given in patent US9586978B2, “Anti-viral compounds” (AbbVie Inc., priority 2009, dated 2017).
Where two headings read alike, the source gives them in different places.

What was measured:
HCV 1b-Con1 replicon = HCV 1b-Con1 replicon assay in the presence of 5% FBS (luciferase reporter); assay type: cell-based; settings: Hepatitis C virus
HCV genotype 1b replicon = HCV genotype 1b replicon assay; assay type: cell-based, Hepatitis C virus; settings: Hepatitis C virus
Excerpt: (§1) [drawing 14] employs a biphenyl linker between the imidazole moieties. See WO2008021927(BMS). The EC50 values of BMS-790052 against different HCV genotypes were shown by Nettles et al., “BMS-790052 is a First-in-class Potent Hepatitis C Virus (HCV) NS5A Inhibitor for Patients with Chronic HCV Infection: Results from a Proof-of-concept Study”, 59th Annual Meeting of the American Association for the Study of Liver Diseases (Oct. 31-Nov. 1, 2008, San Francisco, Calif.; www.natap.org/2008/AASLD/AASLD_06.htm). […] See also Gao et al., NATURE 465:96-100 (2010). The compounds in Table 1 use different linkers between the imidazole moieties. Table 1 depicts the EC50 values of these compounds when tested using respective replicon assays in the presence of 5% (v/v) fetal bovine serum (FBS).
(§2) Table 2 compares compounds containing unsubstituted benzimidazole to those containing halo-substituted benzimidazole. Anti-viral activities were assessed using wild-type replicons (e.g., 1b WT or 1a WT) as well as replicons containing specific NS5A mutations (e.g., 1b L28T, 1b Y93H, 1a L31V, 1a Y93C, 1a M28V, or 1a Q30E) in the absence of FBS.
(§3) Table 3 compares compounds with different linkers between the benzimidazole moieties. Anti-viral activities were determined using 1a and 1b replicon assays. “HP” refers to human plasma. […] As compared to the phenyl linker

HCV genotype 1a replicon = HCV genotype 1a replicon assay; assay type: cell-based, Hepatitis C virus; settings: Hepatitis C virus
Excerpt: as §1, §2, §3

HCV genotype 2a replicon = HCV genotype 2a replicon assay; assay type: cell-based, Hepatitis C virus; settings: Hepatitis C virus, absence of human plasma; Table 5; read-out: EC50 (nM, in the absence of HP) 2a
Excerpt: as §1

HCV genotype 3a replicon = HCV genotype 3a replicon assay; assay type: cell-based, Hepatitis C virus; settings: Hepatitis C virus, read-out: EC50 (nM, in the absence of HP) 3a, absence of human plasma; Table 5
Excerpt: as §1

HCV genotype 2b replicon = HCV genotype 2b replicon assay; assay type: cell-based, Hepatitis C virus; settings: Hepatitis C virus, absence of human plasma; Table 5; read-out: EC50 (nM, in the absence of HP) 2b
Excerpt: as §1

HCV genotype 4a replicon = HCV genotype 4a replicon assay; assay type: cell-based, Hepatitis C virus; settings: Hepatitis C virus, absence of human plasma; Table 5; read-out: EC50 (nM, in the absence of HP) 4a
Excerpt: as §1

[1] = 5% FBS and 40% human plasma, Table 3, read-out: EC50 (nM, in the presence of 5% FBS and 40% HP) 1b
[2] = 5% FBS, Table 3, read-out: EC50 (nM, in the presence of 5% FBS) 1b
[3] = 5% FBS and 40% human plasma, Table 3, read-out: EC50 (nM, in the presence of 5% FBS and 40% HP) 1a
[4] = 5% FBS, Table 3, read-out: EC50 (nM, in the presence of 5% FBS) 1a
[5] = 40% human plasma, Table 5, read-out: EC50 (nM, in the presence of 40% HP) 1b
[6] = 40% human plasma, Table 5, read-out: EC50 (nM, in the presence of 40% HP) 1a

Compound | EC50 (HCV 1b-Con1 replicon) [nM] | EC50 (HCV genotype 1b replicon; [1]) [nM] | EC50 (HCV genotype 1b replicon; [2]) [nM] | EC50 (HCV genotype 1a replicon; [3]) [nM] | EC50 (HCV genotype 1a replicon; [4]) [nM] | EC50 (HCV genotype 1b replicon; [5]) [nM] | EC50 (HCV genotype 1a replicon; [6]) [nM] | EC50 (HCV genotype 2a replicon) [nM] | EC50 (HCV genotype 3a replicon) [nM] | EC50 (HCV genotype 2b replicon) [nM] | EC50 (HCV genotype 4a replicon) [nM]
COC(=O)N[C@H](C(=O)N1CCCC1c1nc2cc([C@H]3CCC(c4cc5nc([C@@H]6CCCN6C(=O)[C@@H](NC(=O)OC)C(C)C)[nH]c5cc4F)N3c3cnc(N4CCC(c5ccccc5)CC4)nc3)c(F)cc2[nH]1)C(C)C (stereo in doubt) [Example 3.46, methyl{(2S)-1-[(2S)-2-(6-fluoro-5-{(2R,5S)-5-{6-fluoro-2-[(2S)-1-{(2S)-2-[(methoxycarbonyl)amino]-3-methylbutanoyl}pyrrolidin-2-yl]-1H-benzimidazol-5-yl}-1-[2-(4-phenylpiperidin-1-yl)pyrimidin-5-yl]pyrrolidin-2-yl}-1H-benzimidazol-2-yl)pyrrolidin-1-yl]-3-methyl-1-oxobutan-2-yl}carbamate] | < 0.1 | – | – | – | – | – | – | – | – | – | –
COC(=O)N[C@H](C(=O)N1CCC[C@H]1c1nc2cc(-c3ccc(-c4ccc5nc([C@@H]6CCCN6C(=O)[C@@H](NC(=O)OC)C(C)C)[nH]c5c4)nc3)ccc2[nH]1)C(C)C | – | < 3.2 | < 0.32 | < 3.2 | < 0.32 | – | – | – | – | – | –
COC(=O)N[C@H](C(=O)N1C[C@@H](OC)C[C@H]1c1nc2cc([C@H]3CC[C@H](c4ccc5[nH]c([C@@H]6C[C@H](OC)CN6C(=O)[C@@H](NC(=O)OC)C(C)C)nc5c4)N3c3ccc(C(C)(C)C)cc3)ccc2[nH]1)C(C)C | – | – | – | – | – | 0.8 | 0.3 | – | – | – | –
COC(=O)N[C@H](C(=O)N1CCC[C@H]1c1nc2cc([C@H]3CC[C@H](c4ccc5[nH]c([C@@H]6CCCN6C(=O)[C@@H](NC(=O)OC)C(C)C)nc5c4)N3c3ccc(N4CCCCC4)c(C(F)(F)F)c3)ccc2[nH]1)C(C)C | – | – | – | – | – | 0.3 | 0.6 | 0.5 | ≤ 0.05 | ≤ 0.05 | ≤ 0.05
COC(=O)N[C@H](C(=O)N1CCC[C@H]1c1nc2cc([C@H]3CC[C@H](c4ccc5[nH]c([C@@H]6CCCN6C(=O)[C@@H](NC(=O)OC)C(C)C)nc5c4)N3)ccc2[nH]1)C(C)C | – | > 4500 | > 250 | 2500 to 8000 | > 250 | – | – | – | – | – | –
COC(=O)N[C@H](C(=O)N1CCC[C@H]1c1nc2ccc([C@H]3CC[C@H](c4ccc5nc([C@@H]6CCCN6C(=O)[C@@H](NC(=O)OC)C(C)C)[nH]c5c4)N3c3ccc(C4CC4)cc3F)cc2[nH]1)C(C)C | – | – | – | – | – | 0.2 | 0.1 | ≤ 0.05 | ≤ 0.05 | ≤ 0.05 | ≤ 0.05
COC(=O)N[C@H](C(=O)N1C(c2nc3cc([C@H]4CCC(c5ccc6[nH]c([C@@H]7C[C@@H]8CCC[C@@H]8N7C(=O)[C@@H](NC(=O)OC)C(C)C)nc6c5)N4c4cc(F)c(N5CCCCC5)c(F)c4)ccc3[nH]2)C[C@@H]2CCC[C@@H]21)C(C)C (stereo partly drawn) [Example 4.18] | < 0.1 | – | – | – | – | – | – | – | – | – | –
COC(=O)N[C@H](C(=O)N1CCC[C@H]1c1nc2cc([C@H]3CC[C@H](c4ccc5[nH]c([C@@H]6CCCN6C(=O)[C@@H](NC(=O)OC)C(C)C)nc5c4)N3c3ccc(N4CCCCC4)c(C#N)c3)ccc2[nH]1)C(C)C | – | – | – | – | – | 0.5 | 0.4 | 0.07 | ≤ 0.05 | ≤ 0.05 | ≤ 0.05
COC(=O)N[C@H](C(=O)N1CCC[C@H]1c1nc2cc([C@H]3CC[C@H](c4ccc5[nH]c([C@@H]6CCCN6C(=O)[C@@H](NC(=O)OC)C(C)C)nc5c4)N3c3ccc(N4CCCCC4)c(F)c3)ccc2[nH]1)C(C)C | – | – | – | – | – | 0.4 | 0.2 | ≤ 0.05 | ≤ 0.05 | ≤ 0.05 | ≤ 0.05
